Holding throughout (format): physicochemical
The nature of series [1]: Particle size determination according to Dry Powder Method (Malvern Master sizer S). The settings on record: ezetimibe used in Examples 1, 3 and 4, in µm (unit assumed). The text has this:
a) Particle Size Determination According to “Dry Powder Method”.
Typical Instrumental Conditions:
Pour the small volume sample in Drypowder Sampler unit. Set the feed rate & air pressure with the help of adjustable knob. And start the measurement until to get the obscuration between 15 and 30. Pass the laser beam through the sample cell to measure the particle size distribution and record the data into a histogram then report the results at 10%, 50% and 90% level of particles size distribution.
Note: Ensure the Laser power should be more than 60%.

A short description of series [2]: Particle size determination according to Wet Method (Malvern laser diffraction). To be noted: dioctyl sulfosuccinate sodium salt in n-hexane. The text has this: b) Particle Size Determination According to “Wet Method”. Ezetimibe Samples PSD Measurement by Malvern Laser Diffraction
A Malvern Laser Diffraction instrument was used to characterize the particle size distribution of ezetimibe. A Mastersizer S model equipped with a small cell dispersion unit MSI with a digital dispersion unit controller was used. The measurement was done using range lens 300RF (working range […]), beam length: 2.40 mm and presentation 3NHE. In this case, a solution of dioctyl sulfosuccinate sodium salt in n-hexane was used as a dilution medium. The measurement was started after 1 minute of recirculation after suspension addition into measurement cell at speed rate 2000+−10 rpm. The suspension was prepared of ˜0.1 g sample in solution 0.065% dioctyl sulfosuccinate sodium salt in n-hexane by vortex for 10 seconds and by sonication for 30 seconds. According to the accepted rules of Good Manufacture Procedures, the sample of ezetimibe is preferably measured after a successful blank measurement (% obscuration NMT 0.1%) is performed.

Series [3] in a line: Determination of specific surface area (BET, single point). The settings on record: BET, single point; Sample no. 1 of example 5b). Here is the method: The specific surface area is determined by […] using BET calculation.
Specific surface area is measured by using the following Parameters: • Instrument: Pulse Chemisorbs 2700 (micromeritics) • Degassing: With out degassing • Sensitivity: No • Calculations: BET • Type: Single point system • Points: One • Sample cell: 6 cm^3 Procedure: • Sample no. 1 of example 5b) of known weight is taken in the sample transparent U shape glass tube. The sample is […] to remove all atmosphere at liquid nitrogen temperature (−196° C.). This is achieved by passing nitrogen through the sample tube, which is placed in a liquid nitrogen bath (−196° C.). The value divided by the weight of the catalyst/sample taken in the tube gives the surface area of the sample. BET Surface Area: • Surface area determination is an important factor in determining the catalyst performance, a method of assessing the efficiency of the catalyst support and promoter. […]
Is a straight line (in the range of P/P0:0.05-0.3) with slope (C−1)/(VmC) and intercept 1/VmC. By knowing these intercept and slope values calculated and further specific surface area can be calculated as follows Specific surface area (m^2/g)={[Vm×NA]/[22414×Wt]}×Am • Where, • Vm=monolayer volume in ml at STP • NA=Avogadro number • Wt=Weight of the catalyst • Am=mean cross sectional area of adsorbate molecule ([…] for N2

Consider `O=C1[C@H](CC[C@H](O)c2ccc(F)cc2)[C@@H](c2ccc(O)cc2)N1c1ccc(F)cc1` [Sample 3 of Example 5a], for which, in series [1], the “d(0.1)” value turned out to be 3.349, the “d(0.5)” value came to 6.356 and the “d(0.9)” value came to 11.429.
As to `O=C1[C@H](CC[C@H](O)c2ccc(F)cc2)[C@@H](c2ccc(O)cc2)N1c1ccc(F)cc1` [Sample 4], in series [2], the “d(0.1)” value was determined as 2.02 μm, the “d(0.5)” value is recorded as 4.11 μm and the “d(0.9)” value turned out to be 8.21 μm.
With `O=C1[C@H](CC[C@H](O)c2ccc(F)cc2)[C@@H](c2ccc(O)cc2)N1c1ccc(F)cc1` [Sample 5], in series [2], the “d(0.1)” value was 2.70 μm, the “d(0.5)” value was 6.76 μm and the “d(0.9)” value turned out to be 16.47 μm.
`O=C1[C@H](CC[C@H](O)c2ccc(F)cc2)[C@@H](c2ccc(O)cc2)N1c1ccc(F)cc1` [ezetimibe, 1-(4-fluorophenyl)-3(R)-[3-(4-fluorophenyl)-3(S)-hydroxypropyl]-4(S)-(4-hydroxyphenyl)-2-azetidinone] registered a Specific surface area in series [3] of 1.24 m^2/gram.

The values are drawn from patent US8858994B2, “Pharmaceutical formulation comprising ezetimibe” (Ratiopharm GmbH, priority 2007, dated 2014).
